Here are results for 74 compounds from PubChem BioAssay AID720570 (Broad Institute, 2013).

Values joined by “and” are separate entries in the source; they are usually repeats but may differ in a detail not shown here. Identical values can stand only once. Active and inactive are the calls of the source.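 How the source made its calls: active means cell-killing curve crosses a set limit at a concentration no more than twice the top valid dose; inconclusive means flat curve with a 30 to 70% loss, or a poor fit; inactive means signal rising instead of falling, and the rest.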

A short description of assay [1]: TC71 Ewing sarcoma cell killing, confirmation, luminescence, cherry-picked samples, retest (AID 720570). The note with it: TC71 Ewing sarcoma viability, CellTiter-Glo ATP, 72 h; at 26 µM (top of the series). On the technique in general: Cellular ATP, detected with luciferase, serves as a proxy for viable cell number.
Assay [2] has as its system TC71 Ewing sarcoma viability, CellTiter-Glo ATP, 72 h. The assay is described as above.

In the case of `CC(C)NC(=O)N(C)C[C@@H]1Oc2cc(C#Cc3ccc(F)cc3)ccc2S(=O)(=O)N([C@H](C)CO)C[C@H]1C`, the activity change, negative = cytotoxicity in assay [1] is 4.97% (inactive).
On to `COc1ccc(/C=C2\SC(=S)N(CCCC(=O)NC3CCCC3)C2=O)cc1OC`, for which, in assay [1], the activity change, negative = cytotoxicity is -1.55% (inactive).
For the compound `O=c1c2ccccc2oc2ccc(C#CC3(O)CCCCC3)cc12`, the activity change, negative = cytotoxicity in assay [1] is -10.3% (inactive).
Turning to `COC(=O)C[C@@H]1CC[C@@H]2[C@H](COc3ccc(NC(=O)Nc4cccc(Cl)c4)cc3C(=O)N2C)O1`, the activity change, negative = cytotoxicity in assay [1] is -5.82% (inactive).
Regarding `C=CCOC(=O)c1sc(NC(=O)c2ccc(OC)cc2)nc1C`, the activity change, negative = cytotoxicity in assay [1] is -3.67% (inactive).
Same read-out and setting: the figure for `COc1ccccc1/C=C1\SC(=S)N(CCC(=O)Nc2cc(C)on2)C1=O` is 6.74% (inactive); for `CC(C)c1ccc(OCc2cccc(C(=O)N/N=C/c3cccnc3)c2)cc1` it is 0.747% (inactive); for `CCNC(=O)c1cccc(S(=O)(=O)N2CCCCCC2)c1` it is -7.03% (inactive).
On the same count and under the same terms, the figure for `CCOc1ccc(-c2cc(CCCC(=O)NCc3ccc(C)cc3)no2)cc1` is -3.16% (inactive); for `Cc1ccc2c(c1)C(=O)N1[C@H]3c4cc(Br)ccc4OC[C@@H]3[C@H](c3ccccc3)[C@]1(C)C(=O)N2` it is -5.71% (inactive); for `COc1ccc(NC(=O)c2cc3ccccc3oc2=O)cc1` it is 7.98% (inactive).
`Nc1ccc(Oc2ccccc2-c2ccccc2)cc1`: the activity change, negative = cytotoxicity in assay [1] is 5.42% (inactive).
`O=C(C[C@H]1C[C@H]2c3cc(NS(=O)(=O)c4ccc(F)cc4)ccc3O[C@H]2[C@H](CO)O1)NCc1ccc(Oc2ccccc2)cc1`: the AC35 in assay [2] is 10.8 µM.
For the compound `C[C@H]1O[C@@H](O[C@H]2[C@@H](O)C[C@H](O[C@H]3[C@@H](O)C[C@H](O[C@H]4CC[C@@]5(C)[C@H](CC[C@@H]6[C@@H]5C[C@@H](O)[C@]5(C)[C@@H](C7=CC(=O)OC7)CC[C@]65O)C4)O[C@@H]3C)O[C@@H]2C)C[C@H](O)[C@@H]1O`, the AC35 in assay [2] is 0.283 µM.
With `CCCCCCCCCCCCCCCCn1cc[n+](C)c1`, the AC35 in assay [2] is 10.2 µM.
Still for that read-out and setting: the figure for `CC[C@@H]1C[C@H]2CC[C@H](O2)[C@H](C)C(=O)O[C@@H](C)C[C@@H]2CC[C@@H](O2)[C@@H](C)C(=O)O[C@H](C)C[C@H]2CC[C@H](O2)[C@H](C)C(=O)O[C@@H](C)C[C@@H]2CC[C@@H](O2)[C@@H](C)C(=O)O1` is 0.0639 µM; for `O=c1c(Cl)cc(Cl)nn1-c1ccccc1` it is 13 µM.
Same read-out and setting: the figure for `Cc1ccc(S(=O)(=O)Nc2ccc3c(c2)C(=O)N([C@@H](C)CO)C[C@@H](C)[C@H](CN(C)Cc2ccc(C(F)(F)F)cc2)OCCCC[C@H](C)O3)cc1` is 11.7 µM; for `C[C@H]1CN([C@@H](C)CO)C(=O)c2cc(N(C)C)ccc2O[C@@H]1CN(C)Cc1ccc(C(=O)Nc2ccccc2N)cc1` it is 17.7 µM.
For the compound `C[C@@H]1CN([C@@H](C)CO)C(=O)c2cc(NS(=O)(=O)c3ccc(F)cc3)ccc2O[C@@H]1CN(C)Cc1ccc(C(=O)Nc2ccccc2N)cc1`, the AC35 in assay [2] is 17.5 µM.
The same measure, in the same setting: the figure for `C[C@H]1CN([C@@H](C)CO)C(=O)Cc2cc(NC(=O)CCCCCC(=O)Nc3ccccc3N)ccc2O[C@H]1CN(C)Cc1ccc(Oc2ccccc2)cc1` is 11.5 µM.
Still for that read-out and setting: the figure for `BrC(=C\c1ccccc1)/C=N/n1cnnc1` is 14.5 µM; for `C[C@@H]1O[C@@H](O[C@H]2C[C@@H](O)[C@]3(CO)[C@H]4[C@H](O)C[C@]5(C)[C@@H](C6COC(=O)C6)CC[C@]5(O)[C@@H]4CC[C@]3(O)C2)[C@H](O)[C@H](O)[C@H]1O` (some centres undefined) it is 4.19 µM.
The same measure, in the same setting: the figure for `COC1C(C)OC(OC2CC(C)(O)Cc3cc4c(c(O)c32)C(=O)c2c(O)cc3c(c2C4=O)OC2OC3(C)C(O)C(N(C)C)C2O)C(OC)C1(C)OC` (centres undefined) is 0.169 µM; for `C/C(=C\c1ccccc1)C(=O)N1CCC=CC1=O` it is 13.7 µM.
As for `C[C@H]1CN([C@@H](C)CO)C(=O)Cc2cc(NC(=O)CCCCCC(=O)Nc3ccccc3N)ccc2O[C@H]1CN(C)Cc1ccc(Cl)c(Cl)c1`, in assay [2], the AC35 is 14.1 µM.
The same measure, in the same setting: the figure for `O=C1NC2C(=CC(O)C(O)C2O)c2cc3c(cc21)OCO3` (centres undefined) is 3.67 µM; for `CCCCCCCCNC(C)C(O)c1ccc(SC(C)C)cc1` (centres undefined) it is 12.1 µM.
Regarding `CC(=NNc1cc(C)c2ccccc2n1)c1ccccn1`, the AC35 in assay [2] was 1.38 µM.
On to `COc1ccc(C2=Nn3c([n+](C)c4ccccc43)SC2)cc1`, for which, in assay [2], the AC35 is 19.6 µM.
Still for that read-out and setting: the figure for `C(=N\Nc1nc2ccccc2[nH]1)/c1ccccn1` is 4.84 µM; for `CC(C)(C)c1ccc(Oc2ccc(NC(=O)c3ccccc3C(=O)O)cn2)cc1` it is 10.3 µM.
Still for that read-out and setting: the figure for `COC(=O)c1ccccc1-c1c2ccc(=N)cc-2oc2cc(N)ccc12` is 8.14 µM.
For `c1ccc(Nc2nnc(-c3ccc4c(c3)OCO4)o2)cc1`, in assay [2], the AC35 is 12 µM.
As to `COc1ccc(-c2cnc3c(NC=O)cc(-c4ccccc4OC)cn23)cc1OC`, the AC35 in assay [2] is 0.147 µM.
Still for that read-out and setting: the figure for `COc1ccc(-c2cc(CNc3nc(NC(C)C)nc4cc(-c5ccccc5)sc34)on2)cc1` is 12.1 µM; for `COC1C(O)C(C)OC(OC2C(Oc3cccc4c(O)c5c(=O)oc6ccc(C)c7c(=O)oc(c34)c5c67)OC(C)C(O)C2O)C1O` (centres undefined) it is 5.5 µM.
Still for that read-out and setting: the figure for `CN(C)c1ccc(C=c2c3ccccc3n3c2c2c([n+]3C)CCCC2)cc1` is 3.96 µM.
With `Cc1cc2c(C(C)C)c(O)c(O)c(C=O)c2c(O)c1-c1c(C)cc2c(C(C)C)c(O)c(O)c(C=O)c2c1O`, the AC35 in assay [2] is 5.02 µM.
Still for that read-out and setting: the figure for `COc1ccc(OC)c(-c2nnc3n2N=C(c2ccc(OC)c(OC4CCOC4)c2)CS3)c1` (centres undefined) is 3.98 µM; for `C[C@H]1CCCCO[C@H](CN(C)Cc2ccc(C(F)(F)F)cc2)[C@@H](C)CN([C@@H](C)CO)C(=O)c2cc(NC(=O)Nc3ccccc3)ccc2O1` it is 12.4 µM.
`S=c1[nH]nc(-c2cc(-c3ccccc3)n[nH]2)n1/N=C/C(Br)=C/c1ccccc1`: in assay [2], the AC35 was 13.2 µM.
Same read-out and setting: the figure for `CN(Cc1cnc2nc(N)nc(N)c2n1)c1ccc(C(=O)N[C@@H](CCC(=O)O)C(=O)O)cc1` is 0.0194 µM and 0.0201 µM; for `Nc1nc2cc3c(cc2cc1C(=O)NCCc1c[nH]c2ccccc12)OCO3` it is 13.7 µM.
For `Oc1[nH]c2ccc(Br)cc2c1N=NC(=S)N1CCOCC1`, the AC35 in assay [2] is 2.87 µM.
On to `O=C(c1cccc(S(=O)(=O)NCc2ccccc2)c1)N1CCN(c2ccccc2)CC1`, for which, in assay [2], the AC35 was 17.6 µM.
Still for that read-out and setting: the figure for `O=C(N/N=C/c1cnc(N2CCCCC2)s1)c1ccc(C(F)(F)F)cc1` is 20.9 µM; for `C[C@@H]1CN([C@@H](C)CO)C(=O)c2cccc(N(C)C)c2O[C@@H]1CN(C)Cc1ccc(C(=O)Nc2ccccc2N)cc1` it is 21.1 µM.
Take `C[C@@H]1CCCCO[C@H](CN(C)Cc2ccc(C(=O)Nc3ccccc3N)cc2)[C@@H](C)CN([C@H](C)CO)C(=O)c2cc(NS(=O)(=O)c3ccc(Cl)cc3)ccc2O1`: the AC35 in assay [2] is 16.2 µM.
Consider `CCOC(=O)[C@]12Cc3ccc(C)cc3[C@H]1N(C1CCCCC1)C(=O)c1ccccc12`, for which the AC35 in assay [2] is 12.1 µM.
For the compound `O=C(O)c1ccc(N/N=C/c2ccc3c(c2)OCO3)cc1`, in assay [2], the AC35 is 9.45 µM.
Turning to `Cc1ccccc1NC(=O)C(=Cc1ccc(C(=O)O)cc1)C(=O)Nc1ccccc1C`, in assay [2], the AC35 is 6.67 µM.
On the same count and under the same terms, the figure for `C[C@H](CO)N1C[C@H](C)[C@H](CN(C)Cc2ccc(Oc3ccccc3)cc2)Oc2ccc(NC(=O)CCCCCC(=O)Nc3ccccc3N)cc2CC1=O` is 11.5 µM; for `C[C@]12CCC3C(CCC4=CC(O)CC[C@@]43/C=N/O)C1(O)CCC2C1=CC(=O)OC1` (some centres undefined) it is 1.82 µM; for `COc1ccccc1NC(=O)N1[C@@H]2CNC[C@H]1[C@@H]2c1ccc(-c2ccc(C#N)cc2)cc1` it is > 23.5 µM (inactive).
As to `Cc1ccc(N2C(=O)c3cccc4c(N)ccc(c34)C2=O)c2cccnc12`, the AC35 in assay [2] is 0.0977 µM.
On the same count and under the same terms, the figure for `COc1ccc(/C=C/C(=O)c2cc(F)ccc2OC(=O)c2ccccc2OC)cc1OC` is 1.59 µM; for `COc1ccc(-c2cn(-c3ccc(OC)cc3)c3[n+]2-c2ccccc2CC3)cc1` it is 14.4 µM; for `Nc1nc(N)c2c(ccc3nccc32)[nH]1` it is 3.24 µM.
As to `O=C(Nc1ccc(F)cc1)N1CCCCN2[C@@H](CO)[C@H](c3ccc(C4=CCCCC4)cc3)[C@@H]2C1`, the AC35 in assay [2] is 22.4 µM.
In the case of `CCCCCCCCCCCCCCCCCCNc1ccn(C2OC(COP(=O)(O)OCC3OC(n4cc(F)c(=O)[nH]c4=O)CC3O)C(O)C2O)c(=O)n1` (centres undefined), the AC35 in assay [2] was 2.77 µM.
For the compound `Nc1nc(N)c(-c2cccc(C(F)(F)F)c2)c(Cc2cccc(C(F)(F)F)c2)n1`, the AC35 in assay [2] is 4.27 µM.
Still for that read-out and setting: the figure for `C[C@H](CO)N1C[C@H](C)[C@@H](CN(C)Cc2ccc(C(F)(F)F)cc2)OCCCC[C@H](C)Oc2ccc(NS(=O)(=O)c3ccc(F)cc3)cc2C1=O` is 17.3 µM.
As for `O=C(N/N=C/c1ccc[nH]1)c1cc(-c2ccc(Cl)cc2)nc2ccccc12`, the AC35 in assay [2] was 15.2 µM.
Same read-out and setting: the figure for `COc1ccc(CN(C)c2ncnc3sccc23)c(OC)c1OC` is 16.2 µM; for `CN1c2ccc(-c3ccc(C#N)cc3)cc2[C@H]2[C@H](CCN2S(=O)(=O)c2cccc(F)c2)[C@H]1CO` it is 3.77 µM.
With `C[C@@H]1CN([C@@H](C)CO)C(=O)Cc2cc(NC(=O)Nc3ccc(C(F)(F)F)cc3)ccc2O[C@@H]1CN(C)Cc1ccc(C(=O)Nc2ccccc2N)cc1`, the AC35 in assay [2] was 10.4 µM.
On the same count and under the same terms, the figure for `OC[C@H]1O[C@@H](n2cnc3c(NCc4ccco4)ncnc32)[C@H](O)[C@@H]1O` is 8.41 µM; for `CCN(Cc1ccccc1)c1ccc(/C=N/N=C(N)N)cc1` it is 15.2 µM; for `C[C@H](CO)N1C[C@H](C)[C@H](CN(C)Cc2ccc(C(=O)Nc3ccccc3N)cc2)Oc2ccc(N(C)C)cc2C1=O` it is 11.9 µM.
On to `O=C1c2ccccc2C(=O)c2cc(N3CCCCC3)ccc21`, for which the AC35 in assay [2] was 23.3 µM.
On the same count and under the same terms, the figure for `CC(=O)Oc1ccc(-c2ccc(C(=O)Nc3cccc(S(=O)(=O)N4CCOCC4)c3)cc2)cc1` is 3.71 µM.
Regarding `COC(=O)C[C@@H]1CC[C@@H]2[C@H](COc3ccc(NC(=O)c4ccc(C(F)(F)F)cc4)cc3C(=O)N2C)O1`, the AC35 in assay [2] is 9.91 µM.
Same read-out and setting: the figure for `CC(=O)OC1CC(OC2C(O)CC(OC3C(O)CC(OC4CCC5(C)C(CCC6C5CCC5(C)C(C7=CC(=O)OC7)CCC65O)C4)OC3C)OC2C)OC(C)C1OC1OC(CO)C(O)C(O)C1O` (centres undefined) is 0.258 µM.
